In patent US20220324868A1, “Pyrazolone-Fused Pyrimidine Compound, and Preparation Method and Use Therefor” (SHANGHAI PHARMACEUTICALS HOLDING CO., LTD., priority 2019, published 2022):
Where two headings read alike, the source gives them in different places.

Columns and labels:
WEE1 kinase = biological target: T1, WEE1 kinase (Homo sapiens, UniProt P30291); assay: Inhibitory effect on WEE1 kinase in vitro (ELISA); assay type: biochemical; details: ATP concentration of Km (12 μM), WEE1 0.15 ng/μL, 60 min
T1 construct: purchased CarnaBiosciences, Inc. 05-177
T1 sequence (P30291 whole entry): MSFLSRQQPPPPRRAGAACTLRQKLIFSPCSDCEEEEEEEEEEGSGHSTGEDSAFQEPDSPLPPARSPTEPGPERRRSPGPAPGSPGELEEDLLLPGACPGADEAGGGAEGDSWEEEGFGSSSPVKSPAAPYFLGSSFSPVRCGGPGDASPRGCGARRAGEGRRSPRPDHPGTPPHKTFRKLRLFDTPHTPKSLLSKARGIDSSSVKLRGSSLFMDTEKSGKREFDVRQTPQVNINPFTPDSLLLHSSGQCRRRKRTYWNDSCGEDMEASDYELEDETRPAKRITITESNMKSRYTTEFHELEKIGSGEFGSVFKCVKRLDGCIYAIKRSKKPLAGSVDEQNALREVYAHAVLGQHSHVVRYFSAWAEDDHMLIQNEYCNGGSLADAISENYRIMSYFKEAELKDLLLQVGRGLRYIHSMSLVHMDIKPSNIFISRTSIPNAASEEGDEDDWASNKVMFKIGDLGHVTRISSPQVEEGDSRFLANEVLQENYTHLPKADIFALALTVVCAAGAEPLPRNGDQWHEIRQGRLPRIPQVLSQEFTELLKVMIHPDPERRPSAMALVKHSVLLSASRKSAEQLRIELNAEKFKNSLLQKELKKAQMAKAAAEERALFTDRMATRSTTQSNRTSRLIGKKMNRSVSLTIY
Protocol: I. Inhibitory Effect of Compound on WEE1 Kinase In Vitro
The tested compounds were screened on WEE1 kinase with ATP concentration of Km by ELISA. Three compounds were screened on WEE1 kinase to evaluate the kinase inhibitory activity of the tested compounds. In the detection process, the initial concentration of the tested compounds was all selected as 100 nM, and each compound was selected with 6 gradient dilution concentrations, the gradient dilution ratio was 4-fold, and two replicate wells were detected for each concentration, MK1775 was used as the standard control.
1. Coating substrate: 1) An appropriate volume of substrate storage solution protein tyrosinase (PTK) substrate (poly-Glu-Tyr) was taken, diluted 10 times with PBS, and the concentration was diluted from […]. The mixture was added to a high adsorption 96-well plate at 125 μL per well. The plate was placed in an incubator at 37° C. for overnight coating. 2) After 24 hours, the 96-well plate was taken out, the liquid in the 96-well plate was poured out, cleaned with washing buffer for 3 times, and the incubator at 37 was inverted and dried for 2 hours.
3. Enzyme reaction stage: 1) WEE1 kinase and ATP were prepared into 2× enzyme solution and 4× ATP solution respectively with 1× reaction buffer.
4. Reaction termination stage: 1) the reaction mixture in the plate was poured out, 200 μL of washing buffer was added to each well, and washed for 5 times; the primary antibody P-Tyr (PY99) (dilution ratio 1:2000) was added, 100 μL per well, at room temperature for 30 min. 2) The primary antibody in the plate was poured out, 200 μL of washing buffer was added to each well, and washed for 5 times; the second antibody Anti-mouse IgG HRP-linked Antibody (dilution ratio 1:2000) was added, 100 μL per well, at room temperature for 30 min. 3) The secondary antibody in the plate was poured out, washed 5 times with washing buffer, and TMB was added, 100 μL per well, and colored for 10-30 min, depending on the color depth. The reaction was terminated with 1N sulfuric acid before reading.
5. […] 2) Graphpad Prism 5.0 was used to fit Log(inhibitor) vs. response-Variable slope (four parameters) curves to the data, and the corresponding IC50 (half maximal inhibitory concentration) was calculated.

COLO 205 cells = assay: Proliferation inhibition of COLO 205 cells (Luminescence ATP Detection, ATPlite); assay type: cell-based; details: Homo sapiens; p53-deficient cell line COLO 205, 72 hours
Protocol: (§1) I. Proliferation Inhibitory of the Compound on COLO 205 Cells and Hela Cells.
(§2) COLO205 cells, purchased from SIBS, generation P11; Hela purchased from ATCC, generation P13.
(§3) Drug treatment of cells: on the third day of the experiment, microplates were removed from the incubator, 9× compound were added to each well in the microplate, and 5 μL was added to each well, wherein there were 2 replicate wells for each drug concentration and 10 drug concentrations for each compound. According to different cell lines, the initial concentration of each compound was different, after the completion, the microplate was cultured at 37° C. and 5% CO2 for 72 hours.
(§4) Data collection: The microplates were removed from the incubator and equilibrated at room temperature for 30 minutes. 100 μL of ATPlite reaction mixture after room temperature equilibrium was added to each well, the solution was shaken at room temperature of 1300 rpm for 2 minutes, and then the microplate was placed in a HERAEUS Multifuge X1R centrifuge at 2000 rpm for 1 minute; after equilibrium at room temperature for 10 minutes, the fluorescence signal value was measured on EnVision™.
(§5) Calculation of cell viability: Cell viability(%)=signal value of administration/signal value of controlx 100%. Graphpad Prism 5.0 was used to fit Log(inhibitor) vs. response-Variable slope (four parameters) curves to the fluorescence signal values at each concentration, and the corresponding IC50 (half maximal inhibitory concentration) was calculated.

Hela cells = assay: Proliferation inhibition of Hela cells (Luminescence ATP Detection, ATPlite); assay type: cell-based; details: Homo sapiens, 72 hours
Protocol: as §1, §2
Cell culture and inoculation: on the first day of the experiment, cells in normal culture were taken in their exponential growth state, digested and dispersed, the cell density was adjusted to 9×10^3 cells/mL, and 40 μL per well were inoculated into 384-well cell culture plates; after inoculation was completed, the microplates were placed at 37° C. and 5% CO2 for incubation.
as §3, with “second” for “third”
as §4, with “the” for “The”, “40” for “100”
as §5

C=CCn1c(=O)c2cnc(Nc3ccc(N4CC5(CCN(C)CC5)C4)cc3)nc2n1-c1ccc2c(n1)C(O)CC2 (stereo not drawn) [Compound I-10]
IC50 (WEE1 kinase; read-out: WEE1 IC50): 8.59 nM
IC50 (COLO 205 cells): 920 nM
IC50 (Hela cells): 206 nM

C=CCn1c(=O)c2cnc(Nc3ccc(N4CC5(CCN(CC)CC5)C4)cc3)nc2n1-c1ccc2c(n1)C(O)CC2 (stereo not drawn) [Compound I-11]
IC50 (WEE1 kinase; read-out: WEE1 IC50): 11.3 nM
IC50 (COLO 205 cells): 1190 nM
IC50 (Hela cells): 317 nM

C=CCn1c(=O)c2cnc(Nc3ccc(N4CCC5(CC4)CN(C)C5)cc3)nc2n1-c1ccc2c(n1)C(C)(O)CC2 (stereo not drawn) [Compound I-13, 2-allyl-1-(7-hydroxy-7-methyl-6,7-dihydro-5H-cyclopenta[b]pyridin-2-yl)-6-((4-(2-methyl-2,7-diazaspiro[3.5]nonan-7-yl)phenyl)amino)-1,2-dihydro-3H-pyrazolo[3,4-d]pyrimidin-3-one]
IC50 (WEE1 kinase; read-out: WEE1 IC50): 3.41 nM
IC50 (COLO 205 cells): 886 nM
IC50 (Hela cells): 190 nM

C=CCn1c(=O)c2cnc(Nc3ccc(N4CC5(CCN(C)CC5)C4)cc3)nc2n1-c1ccc2c(n1)C(C)(O)CC2 (stereo not drawn) [Compound I-14, 2-allyl-1-(7-hydroxy-7-methyl-6,7-dihydro-5H-cyclopenta[b]pyridin-2-yl)-6-((4-(7-methyl-2,7-diazaspiro[3.5]nonan-2-yl)phenyl)amino)-1,2-dihydro-3H-pyrazolo[3,4-d]pyrimidin-3-one]
IC50 (WEE1 kinase; read-out: WEE1 IC50): 2.81 nM
IC50 (COLO 205 cells): 363 nM
IC50 (Hela cells): 192 nM

C=CCn1c(=O)c2cnc(Nc3ccc(N4CCN(C)CC4)cc3)nc2n1-c1ccc2c(n1)C(C)(O)CC2 (stereo not drawn) [Compound I-16, 2-allyl-1-(7-hydroxy-7-methyl-6,7-dihydro-5H-cyclopenta[b]pyridin-2-yl)-6-((4-(4-methylpiperazin-1-yl)phenyl)amino)-1,2-dihydro-3H-pyrazolo[3,4-d]pyrimidin-3-one]
IC50 (WEE1 kinase; WEE1 IC50, nM): 3.99 nM
IC50 (COLO 205 cells): 1620 nM
IC50 (Hela cells): 316 nM

C=CCn1c(=O)c2cnc(Nc3ccc(N4CCN(C)CC4)cc3)nc2n1-c1ccc2c(n1)C(C)(O)CCC2 (stereo not drawn) [Compound I-19, 2-allyl-1-(8-hydroxy-8-methyl-5,6,7,8-tetrahydroquinolin-2-yl)-6-((4-(4-methylpiperazin-1-yl)phenyl)amino)-1,2-dihydro-3H-pyrazolo[3,4-d]pyrimidin-3-one]
IC50 (WEE1 kinase; WEE1 IC50, nM): 1.89 nM
IC50 (COLO 205 cells): 944 nM
IC50 (Hela cells): 170 nM

C=CCn1c(=O)c2cnc(Nc3ccc(N4CCN(C)CC4)cc3)nc2n1-c1ccc2c(n1)C(O)CCC2 (stereo not drawn) [Compound I-23]
IC50 (WEE1 kinase; read-out: WEE1 IC50): 2.87 nM
IC50 (COLO 205 cells): 1670 nM
IC50 (Hela cells): 534 nM

C=CCn1c(=O)c2cnc(Nc3ccc(N4C[C@H]5CN(C)C[C@H]5C4)cc3)nc2n1-c1ccc2c(n1)C(C)(O)CCC2 (stereo partly drawn) [Compound I-32, 2-allyl-1-(8-hydroxy-8-methyl-5,6,7,8-tetrahydroquinolin-2-yl)-6-((4-((3aR,6aS)-5-methylhexahydropyrrolo[3,4-c]pyrrole-2(1H)-yl)phenyl)amino)-1,2-dihydro-3H-pyrazolo[3,4-d]pyrimidin-3-one]
IC50 (WEE1 kinase; read-out: WEE1 IC50): 4.79 nM
IC50 (COLO 205 cells): 541 nM
IC50 (Hela cells): 148 nM

C=CCn1c(=O)c2cnc(Nc3ccc(N4C[C@H]5CNC[C@H]5C4)cc3)nc2n1-c1ccc2c(n1)C(C)(O)CCC2 (stereo partly drawn) [Compound I-33, 2-allyl-6-((4-((3aR, 6aS)hexahydropyrrolo[3,4-c]pyrrolo-2(1H)-yl)phenyl)amino)-1-(8-hydroxy-8-methyl-5,6,7,8-tetrahydroquinolin-2-yl)-1,2-dihydro-3H-pyrazolo[3,4-d]pyrimidin-3-one]
IC50 (WEE1 kinase; read-out: WEE1 IC50): 3.48 nM
IC50 (COLO 205 cells): 891 nM
IC50 (Hela cells): 200 nM

C=CCn1c(=O)c2cnc(Nc3ccc(C4CCC(N(C)C)CC4)cc3)nc2n1-c1ccc2c(n1)C(C)(O)CC2 (stereo not drawn) [Compound I-34]
IC50 (WEE1 kinase; read-out: WEE1 IC50): 4.79 nM
IC50 (COLO 205 cells): 1580 nM
IC50 (Hela cells): 214 nM

C=CCn1c(=O)c2cnc(Nc3ccc(N4CC5CN(C)CC5C4)cc3)nc2n1-c1ccc2c(n1)C(C)(O)CC2 (stereo not drawn) [Compound I-35, 2-allyl-1-(7-hydroxy-7-methyl-6,7-dihydro-5H-cyclopenta[b]pyridin-2-yl)-6-((4-(-5-methylhexahydropyrrolo[3,4-c]pyrrol-2(1H)-yl)phenyl)amino)-1,2-dihydro-3H-pyrazolo[3,4-d]pyrimidin-3-one]
IC50 (WEE1 kinase; read-out: WEE1 IC50): 3.15 nM
IC50 (COLO 205 cells): 473 nM
IC50 (Hela cells): 147 nM

C=CCn1c(=O)c2cnc(Nc3ccc(N4C[C@@H]5CN(C6CCC6)C[C@@H]5C4)cc3)nc2n1-c1ccc2c(n1)C(O)CC2 (stereo partly drawn) [Compound I-38]
IC50 (WEE1 kinase; read-out: WEE1 IC50): 2.43 nM
IC50 (COLO 205 cells): 451 nM
IC50 (Hela cells): 134 nM

C=CCn1c(=O)c2cnc(Nc3ccc(N4C[C@@H]5CN(C(C)C6CC6)C[C@@H]5C4)cc3)nc2n1-c1ccc2c(n1)C(O)CC2 (stereo partly drawn) [Compound I-41]
IC50 (WEE1 kinase; read-out: WEE1 IC50): 10.6 nM
IC50 (COLO 205 cells): 786 nM
IC50 (Hela cells): 224 nM
